Laboratory results published in publication PMC6222450, “Computer-Aided Studies for Novel Arylhydantoin 1,3,5-Triazine Derivatives as 5-HT6 Serotonin Receptor Ligands with Antidepressive-Like, Anxiolytic and Antiobesity Action In Vivo” (Molecules : A Journal of Synthetic Chemistry and Natural …, 2018).
Where “and” joins values, the source holds several entries; their conditions need not be identical. Equal entries are not always repeated.

Assays:
human serotonin 5-HT6R = biological target: T1, human serotonin 5-HT6R (Homo sapiens, UniProt P50406); assay: Radioligand binding assay, 5-HT6R, [3H]-LSD displacement
T1 construct: expressed in transfected cells; host or cells: HEK-293
Protocol: Five selective radioligands were employed (Table 1).
Radioligand binding assays were used to determine the affinity of the synthesized compounds for human serotonin 5-HT6R, which were stably expressed in HEK-293 cells. […] Each compound was tested in triplicate at 7 to 8 different concentrations (10^−11 to 10^−4 M). The inhibition constants (Ki) were calculated using the Cheng–Prusoff equation [40], and the results are expressed as the mean of at least two independent experiments.

[1] = Body weight of non-obese rats fed palatable diet (model of excessive eating); assay type: in vivo, rat
From the text: In order to determine the anorectic activity of 6 or 26, the model of excessive eating was used. Male Wistar rats (170–190 g) were housed in a pair in plastic cages in constant temperature facilities exposed to a light-dark cycle. Water and food were available ad libitum. Two groups of 6 rats were fed with diets consisting of milk chocolate with nuts, cheese, salted peanuts, and 7% condensed milk and also had access to standard feed (Labofeed B, Morawski Manufacturer Feed, Kcynia, Poland) and water ad libitum for 3 weeks. Palatable control group (palatable diet + vehicle) received vehicle (1% Tween 80, intraperitoneally), while palatable test group (palatable diet + 6 or palatable + 26) was injected (intraperitoneally) with 6 or 26 at the dose of 5 mg/kg b.w. dissolved in 1% Tween 80 (1 mL/kg). Body weights were measured daily, immediately prior to administration of drugs.
The palatable diet contained: 100 g peanuts—614 kcal; 100 mL condensed milk—131 kcal; 100 g milk chocolate—529 kcal; 100g cheese (Greek type)—270 kcal. The standard diet contained 100 g feed—280 kcal.

male Wistar rats = assay: Forced swim test (FST); assay type: in vivo, rat; details: i.p. 60 min before test, 5 min observation, p < 0.05
Protocol: The experiments were performed on male Wistar rats (200–220 g—behavioural test or 170–190 g—metabolic assay) obtained from an accredited animal facility at the Jagiellonian University Medical College, Poland. The animals were housed in a group of four in a controlled environment (ambient temperature 21 ± 2 °C; relative humidity 50–60%; 12 h light/dark cycles (lights on at 8:00). Standard laboratory food (LSM-B) and filtered water were freely available (behavioral tests). Animals were assigned randomly to treatment groups. All the experiments were performed by two observers unaware of the treatment applied between 9:00 and 14:00 on separate groups of animals. All animals were used only once.
Compounds were suspended in 1% Tween 80 immediately before administration in a volume of 2 mL/kg—behavioral tests or 1 mL/kg—body weight measures. Compounds were administered intraperitoneally (i.p.) 60 min before testing—behavioral tests. Control animals received vehicle (1% Tween 80) according to the same schedule.
The experiment was carried out according to the method of Porsolt et al.. […] On the following day (24 h later), the rats were replaced in the cylinder and the total duration of immobility was recorded during the whole 5-min test period. […]

HEK-293 cells = assay: Toxicity in vitro, MTS test; assay type: cell-based; details: 0.1 μM–100 μM, 72 h
Protocol: The preliminary evaluation of the safety profile for the most promising 5-HT6R ligands 6 and 26 was performed in vitro with the HEK-293 eukaryotic cell line. The compounds examined were dissolved in culture growth media and incubated with cells for 72 h. Next, the MTS test was applied to determine the viability of the cells. […] The reference cytostatic drug doxorubicin (DX) at the very low concentration 1 μM was also cytotoxic.
The ATCC CRL 1573 HEK-293 cells were seeded in 96-well plates (NuncTM) at a concentration of 1 × 10^4 cells/well in 200 μL in Dulbecco’s Modified Eagle’s Medium (Gibco®) supplemented with 10% fetal bovine serum (Gibco®), and cultured at 37 °C in an atmosphere containing 5% of CO2 for 24 h to reach 60% confluence. The 10 mM stock solutions of 5-HT6R ligands 6 and 26 in DMSO were diluted into fresh growth medium and added into the microplates at the final concentrations 0.1 μM –100 μM. […] The cytostatic drug doxorubicin (Sigma-Aldrich) at the concentration 1 μM was used as a reference. After 72 h of incubation 20 μL of CellTiter 96® AQueous Non-Radioactive Cell Proliferation Assay (MTS) (Promega®) was added to each well and the cells were incubated under the same conditions for 2 h. The absorbance of the samples was measured using a microplate reader EnSpire (PerkinElmer, Waltham, MA, USA) at 490 nm. Statistical significance was analyzed by GraphPad Prism™ software v. 5.01 (GraphPad Software, La Jolla, CA, USA) using One-way ANOVA and Bonferroni’s Multiple Comparison Post Test.

5-HT7bR = biological target: T2, 5-HT7bR (Homo sapiens, UniProt P34969); assay: Radioligand binding assay, 5-HT7bR, [3H]-5-CT; details: human 5-HT7b receptor stably expressed in HEK-293 cells; read-out: Ki 5-HT7 [3H]-5-CT
T2 construct: expressed in transfected cells; host or cells: HEK-293

5-HT2A = biological target: T3, 5-HT2A (Homo sapiens, UniProt P28223); assay: Radioligand binding assay, 5-HT2A, [3H]-Ketanserin; details: human receptor stably expressed in HEK-293 cells
T3 construct: expressed in transfected cells; host or cells: HEK-293

5-HT1A = biological target: T4, 5-HT1A (Homo sapiens, UniProt P08908); assay: Radioligand binding assay, 5-HT1A, [3H]-8-OH-DPAT; details: human receptor stably expressed in HEK-293 cells
T4 construct: expressed in transfected cells; host or cells: HEK-293
T4 sequence (P08908 1-422): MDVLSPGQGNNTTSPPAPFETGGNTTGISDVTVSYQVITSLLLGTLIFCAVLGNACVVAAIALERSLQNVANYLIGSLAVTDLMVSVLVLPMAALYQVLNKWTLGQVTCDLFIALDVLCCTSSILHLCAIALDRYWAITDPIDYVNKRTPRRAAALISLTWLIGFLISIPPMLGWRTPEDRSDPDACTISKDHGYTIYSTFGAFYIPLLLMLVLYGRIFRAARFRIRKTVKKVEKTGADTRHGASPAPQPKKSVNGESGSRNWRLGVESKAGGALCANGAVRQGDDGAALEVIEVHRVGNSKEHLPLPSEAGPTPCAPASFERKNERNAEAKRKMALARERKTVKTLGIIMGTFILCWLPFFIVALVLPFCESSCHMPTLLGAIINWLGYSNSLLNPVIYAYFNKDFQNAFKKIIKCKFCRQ

T1 sequence (P50406 whole entry): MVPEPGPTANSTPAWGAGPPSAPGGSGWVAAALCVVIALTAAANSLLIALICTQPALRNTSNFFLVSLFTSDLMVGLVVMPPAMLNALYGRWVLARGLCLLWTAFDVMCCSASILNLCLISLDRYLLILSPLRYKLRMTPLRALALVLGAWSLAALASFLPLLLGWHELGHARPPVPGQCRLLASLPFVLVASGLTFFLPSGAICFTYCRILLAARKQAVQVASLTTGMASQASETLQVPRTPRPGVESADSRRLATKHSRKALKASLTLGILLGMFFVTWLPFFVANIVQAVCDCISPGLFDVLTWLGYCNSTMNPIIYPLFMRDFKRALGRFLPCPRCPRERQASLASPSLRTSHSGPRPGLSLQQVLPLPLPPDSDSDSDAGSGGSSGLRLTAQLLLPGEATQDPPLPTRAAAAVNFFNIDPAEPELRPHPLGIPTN
T3 sequence (P28223 whole entry): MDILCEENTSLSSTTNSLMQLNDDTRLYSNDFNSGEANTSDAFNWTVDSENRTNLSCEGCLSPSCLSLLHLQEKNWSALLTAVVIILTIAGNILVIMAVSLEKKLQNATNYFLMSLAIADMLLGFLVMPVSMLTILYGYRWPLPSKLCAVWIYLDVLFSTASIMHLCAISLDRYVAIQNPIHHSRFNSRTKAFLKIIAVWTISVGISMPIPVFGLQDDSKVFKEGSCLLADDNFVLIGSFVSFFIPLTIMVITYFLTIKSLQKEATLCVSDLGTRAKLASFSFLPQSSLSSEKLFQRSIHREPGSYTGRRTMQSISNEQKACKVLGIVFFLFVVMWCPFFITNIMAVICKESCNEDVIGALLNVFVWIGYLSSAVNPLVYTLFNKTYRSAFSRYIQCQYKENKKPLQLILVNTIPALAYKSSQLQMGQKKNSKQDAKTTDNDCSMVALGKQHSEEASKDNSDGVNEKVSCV
T2 sequence (P34969 1-432 limits assumed): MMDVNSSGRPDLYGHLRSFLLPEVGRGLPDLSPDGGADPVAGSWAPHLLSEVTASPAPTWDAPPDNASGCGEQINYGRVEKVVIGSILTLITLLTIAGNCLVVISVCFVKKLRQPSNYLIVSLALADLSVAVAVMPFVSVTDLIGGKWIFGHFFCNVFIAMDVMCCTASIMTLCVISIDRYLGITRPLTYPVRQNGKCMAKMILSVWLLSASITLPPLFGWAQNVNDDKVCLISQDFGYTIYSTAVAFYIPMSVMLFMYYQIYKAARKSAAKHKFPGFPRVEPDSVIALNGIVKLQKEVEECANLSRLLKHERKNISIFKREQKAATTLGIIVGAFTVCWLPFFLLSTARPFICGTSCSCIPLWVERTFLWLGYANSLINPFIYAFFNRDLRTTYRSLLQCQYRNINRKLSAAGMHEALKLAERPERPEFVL

CN1CCN(c2nc(N)nc(CN3C(=O)NC(C)(c4ccc5ccccc5c4)C3=O)n2)CC1 (centres unmarked) [Compound 26, 3-((4-Amino-6-(4-methylpiperazin-1-yl)-1,3,5-triazin-2-yl)methyl)-5-methyl-5-(naphthalen-2-yl)imidazolidine-2,4-dione]
selectivity towards competitive G-protein coupled receptors (human serotonin 5-HT6R; 5-HT6R vs 5-HT1A, 5-HT2A, 5-HT7, D2): 6–197 fold
selectivity over 5-HT7R (human serotonin 5-HT6R; 5-HT6R vs 5-HT7R): 6 fold
Ki (human serotonin 5-HT6R; human receptor stably expressed in HEK-293 cells, mean of at least two independent experiments, read-out: Ki 5-HT6 [3H]-LSD): < 200 nM and 87 nM
day of experiment from which groups differed significantly ([1]; rats fed palatable feed, 5 mg/kg b.w. i.p. daily): 12 days
weight gain vs control group ([1]; rats fed palatable feed, 5 mg/kg b.w. i.p., 21 days): significantly less weight gain
body weight vs control animals fed standard feed ([1]; treated rats with access to preferential feed, 5 mg/kg b.w. i.p.): did not differ significantly
decrease of immobility time vs. vehicle treated group (male Wistar rats): about 20%
toxicity in HEK-293 cells (HEK-293 cells): no significant toxicity
Ki (5-HT7bR): 514 nM
Ki (5-HT2A): 17200 nM
Ki (5-HT1A): 14200 nM
